These are literature values, as cited in patent publication US11116745B2, “Prebiotic formulation” (Deep Cell Industries, Inc., priority 2018, dated 2021).

The target of one data set is cannabinoid CB2 receptor (Homo sapiens, UniProt P34972).
Assay in data set [1]: not given
The source holds these as a separate data set.

The test system of another data set is enteric glial cells. As to conditions: over active enteric glial cells.

Chain of cannabinoid CB2 receptor (P34972 whole entry): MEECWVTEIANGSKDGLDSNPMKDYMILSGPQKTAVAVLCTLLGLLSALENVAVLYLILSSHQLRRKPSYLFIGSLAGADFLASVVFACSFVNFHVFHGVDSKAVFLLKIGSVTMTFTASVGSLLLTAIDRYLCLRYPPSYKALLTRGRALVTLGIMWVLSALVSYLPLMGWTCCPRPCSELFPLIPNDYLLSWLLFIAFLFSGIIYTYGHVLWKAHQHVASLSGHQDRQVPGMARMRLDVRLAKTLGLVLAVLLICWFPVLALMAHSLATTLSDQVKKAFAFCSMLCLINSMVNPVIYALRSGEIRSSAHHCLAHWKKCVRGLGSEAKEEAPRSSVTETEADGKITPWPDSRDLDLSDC

Consider `C=C(C)[C@@H]1CCC(C)=C[C@H]1c1c(O)cc(CCCCC)cc1O` [Cannabidiol], for which the “oral bioavailability (absorption)” value is 13-19%. In addition, on cannabinoid CB2 receptor, the “affinity for the cannabinoid CB2 receptor” value is “very low affinity”. Moreover, in data set [1], the solubility entry was “low”. Moreover, in the data set with enteric glial cells, the “expression of S100B and iNOS proteins” value was “reduce”.
